Laboratory results reported in paper PMC6270991, “Design and Synthesis of Thiazolo[5,4-f]quinazolines as DYRK1A Inhibitors, Part I” (Molecules, 2014).
Read-outs that look alike come from different tables or passages of the source.

Key:
DYRK1A = DYRK1A (Rattus norvegicus, UniProt Q63470); experiment: DYRK1A in vitro kinase assay (33P-ATP, Woodtide substrate); type: biochemical
Procedure: (§1) Buffer A: MgCl2 (10 mM), 1 mM ethylene glycol-bis(2-aminoethylether)-N,N,N',N'-tetraacetic acid (EGTA), 1 mM dithiothreitol (DTT), 25 mM Tris-HCl pH 7.5, 50 μg heparin/mL.
(§2) Controls were performed with appropriate dilutions of dimethylsulfoxide (DMSO). IC50 values were calculated from dose-response curves established by Sigma-Plots. The GSK-3, CK1, DYRK1A and CLK1 peptide substrates were obtained from Proteogenix (Oberhausbergen, France).
(§3) CDK5/p25. (Human, recombinant) was prepared as previously described. […] ATP (3000 Ci/mmol; 10 mCi/mL) in a final volume of 30 μL. After 30 min incubation at 30 °C, 25 μL aliquots of supernatant were spotted onto sheets of Whatman P81 phosphocellulose paper, and 20 s later, the filters were washed eight times (for at least 5 min each time) in a solution of 10 mL phosphoric acid/L of water. The wet filters were counted in the presence of 1 mL ACS (Amersham) scintillation fluid.

CK1δ/ε = CK1δ/ε in vitro kinase assay (33P-ATP, CK1-specific peptide substrate); type: biochemical, Porcine; settings: 15 μM ATP, 30 min at 30 °C, triplicate; <50% inhibition at 10 µM reported as >10
Procedure: as §2, §3
CK1δ/ε. (Porcine brain, native) was assayed as described for CDK5/p25, but using the CK1-specific peptide substrate […]pSAYSITA [23].

CDK5/p25 = target: T1, CDK5/p25 (Homo sapiens, UniProt Q00535); experiment: CDK5/p25 in vitro kinase assay (33P-ATP, histone H1); type: biochemical
T1 construct: made in house
Procedure: as §1, §2, §3

GSK-3α/β = GSK-3α/β in vitro kinase assay (33P-ATP, GS-1 peptide); type: biochemical, Porcine; settings: 15 μM ATP, 30 min at 30 °C, triplicate; <50% inhibition at 10 µM reported as >10; read-out: GSK3 IC50
Procedure: as §1, §2, §3
GSK-3α/β. (Porcine brain, native) was assayed as described for CDK5/p25, but in buffer A and using a GSK-3 specific substrate (GS-1: […]pSEDEEE) (pS stands for phosphorylated serine).

[1] = 15 μM ATP, 30 min at 30 °C, triplicate, <50% inhibition at 10 µM reported as >10
[2] = 15 μM ATP, 30 min at 30 °C, triplicate, <50% inhibition at 10 µM reported as >10, read-out: CDK5 IC50

T1 sequence (Q00535 whole entry): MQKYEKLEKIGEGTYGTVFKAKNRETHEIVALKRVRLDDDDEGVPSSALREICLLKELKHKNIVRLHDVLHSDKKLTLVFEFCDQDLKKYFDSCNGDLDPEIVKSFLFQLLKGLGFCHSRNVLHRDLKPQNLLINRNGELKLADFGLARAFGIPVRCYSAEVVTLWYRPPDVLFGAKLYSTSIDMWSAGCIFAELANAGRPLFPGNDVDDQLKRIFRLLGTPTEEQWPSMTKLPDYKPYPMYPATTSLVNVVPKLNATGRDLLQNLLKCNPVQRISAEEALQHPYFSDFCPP
T1 sequence (Q15078 99-307 partner limits assumed): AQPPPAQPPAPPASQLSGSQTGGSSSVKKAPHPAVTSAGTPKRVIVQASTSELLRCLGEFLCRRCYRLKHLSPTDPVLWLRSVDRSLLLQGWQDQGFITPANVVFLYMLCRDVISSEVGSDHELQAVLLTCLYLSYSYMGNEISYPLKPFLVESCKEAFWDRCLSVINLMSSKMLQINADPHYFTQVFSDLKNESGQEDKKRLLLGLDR

Structure (SMILES) | IC50 (DYRK1A) | IC50 (CK1δ/ε) | IC50 (CDK5/p25; read-out: CDK5 IC50) | IC50 (GSK-3α/β) | IC50 (CDK5/p25) | IC50 (DYRK1A; [1]) | IC50 (CDK5/p25; [2])
COc1ccc(Nc2ncnc3ccc4nc(C(=N)NCCN5CCCCC5)sc4c23)cc1 [Compound 7b, 9-(4-Methoxyphenylamino)-N-(2-(piperidin-1-yl)ethyl)thiazolo[5,4-f]quinazoline-2-carboximidamide] | > 10 µM | > 10 µM | > 10 µM | 2.5 µM |  |  | 
N=C(NCCN1CCOCC1)c1nc2ccc3ncnc(Nc4ccc5c(c4)OCO5)c3c2s1 [Compound 8a, 9-(Benzo[d][1,3]dioxol-5-ylamino)-N-(2-morpholinoethyl)thiazolo[5,4-f]quinazoline-2-carboximidamide] | 2.2 µM | > 10 µM | > 10 µM | 0.97 µM |  |  | 
NC(=O)c1nc2ccc3ncnc(Nc4ccc(F)c(Cl)c4)c3c2s1 [Compound 10h, 9-(3-Chloro-4-fluorophenylamino)thiazolo[5,4-f]quinazoline-2-carboxamide] |  | > 10 µM |  | 0.66 µM | > 10 µM |  | 
COc1ccc(Nc2ncnc3ccc4nc(C(=N)NCCN(C)C)sc4c23)cc1 [Compound 7d, N-(2-(Dimethylamino)ethyl)-9-(4-methoxyphenylamino)thiazolo[5,4-f]quinazoline-2-carboximidamide] | > 10 µM | > 10 µM | > 10 µM | > 10 µM |  |  | 
COc1ccc(Nc2ncnc3ccc4nc(C(=N)NCCN5CCCC5)sc4c23)cc1 [Compound 7c, 9-(4-Methoxyphenylamino)-N-(2-(pyrrolidin-1-yl)ethyl)thiazolo[5,4-f]quinazoline-2-carboximidamide] | > 10 µM | > 10 µM | > 10 µM | 2 µM |  |  | 
N=C(NCCN1CCOCC1)c1nc2ccc3ncnc(Nc4ccc(Br)cc4F)c3c2s1 [Compound 9a, 9-(4-Bromo-2-fluorophenylamino)-N-(2-morpholinoethyl)thiazolo[5,4-f]quinazoline-2-carboximid-amide] |  | > 10 µM |  | 1.8 µM |  | > 10 µM | > 10 µM
CCN(CC)CCNC(=N)c1nc2ccc3ncnc(Nc4ccc5c(c4)OCO5)c3c2s1 [Compound 8e, 9-(Benzo[d][1,3]dioxol-5-ylamino)-N-(2-(diethylamino)ethyl)thiazolo[5,4-f]quinazoline-2-carboxi-midamide] |  | > 10 µM |  | 0.8 µM |  | 6.5 µM | > 10 µM
CCN(CC)CCNC(=N)c1nc2ccc3ncnc(Nc4ccc(Br)cc4F)c3c2s1 [Compound 9e, 9-(4-Bromo-2-fluorophenylamino)-N-(2-(diethylamino)ethyl)thiazolo[5,4-f]quinazoline-2-carboxi-midamide] |  | > 10 µM |  | 2.1 µM |  | > 10 µM | > 10 µM
N=C(NCCN1CCCCC1)c1nc2ccc3ncnc(Nc4ccc(Br)cc4F)c3c2s1 [Compound 9b, 9-(4-Bromo-2-fluorophenylamino)-N-(2-(piperidin-1-yl)ethyl)thiazolo[5,4-f]quinazoline-2-carboxi-midamide] |  | > 10 µM |  | 0.53 µM |  | > 10 µM | > 10 µM
N=C(NCc1ccccc1)c1nc2ccc3ncnc(Nc4ccc5c(c4)OCO5)c3c2s1 [Compound 8f, 9-(Benzo[d][1,3]dioxol-5-ylamino)-N-benzylthiazolo[5,4-f]quinazoline-2-carboximidamide] | > 10 µM | > 10 µM | > 10 µM | 2 µM |  |  | 
CN(C)C(=N)c1nc2ccc3ncnc(Nc4ccc(Br)cc4F)c3c2s1 [Compound 9g] |  | > 10 µM |  | 0.6 µM |  | 0.27 µM | > 10 µM
N=C(NCCN1CCCCC1)c1nc2ccc3ncnc(Nc4ccc(F)c(Cl)c4)c3c2s1 [Compound 10b, 9-(3-Chloro-4-fluorophenylamino)-N-(2-(piperidin-1-yl)ethyl)thiazolo[5,4-f]quinazoline-2-carboxi-midamide] |  | > 10 µM |  | 1.4 µM |  | > 10 µM | > 10 µM
COc1ccc(Nc2ncnc3ccc4nc(C(=N)NCCN5CCOCC5)sc4c23)cc1 [Compound 7a, 9-(4-Methoxyphenylamino)-N-(2-morpholinoethyl)thiazolo[5,4-f]quinazoline-2-carboximidamide] | > 10 µM | > 10 µM | > 10 µM | 1.1 µM |  |  | 
N=C(NCCN1CCCC1)c1nc2ccc3ncnc(Nc4ccc(F)c(Cl)c4)c3c2s1 [Compound 10c, 9-(3-Chloro-4-fluorophenylamino)-N-(2-(pyrrolidin-1-yl)ethyl)thiazolo[5,4-f]quinazoline-2-carboxi-midamide] |  | > 10 µM |  | 2.5 µM |  | > 10 µM | > 10 µM
COc1ccc(Nc2ncnc3ccc4nc(C(N)=O)sc4c23)cc1 [Compound 7h, 9-(4-Methoxyphenylamino)thiazolo[5,4-f]quinazoline-2-carboxamide] |  | > 10 µM |  | 0.3 µM | > 10 µM |  | 
CN(C)CCNC(=N)c1nc2ccc3ncnc(Nc4ccc5c(c4)OCO5)c3c2s1 [Compound 8d, 9-(Benzo[d][1,3]dioxol-5-ylamino)-N-(2-(dimethylamino)ethyl)thiazolo[5,4-f]quinazoline-2-carboxi-midamide] |  | > 10 µM |  | 0.25 µM |  | 1.05 µM | > 10 µM
N=C(NCc1ccccc1)c1nc2ccc3ncnc(Nc4ccc(Br)cc4F)c3c2s1 [Compound 9f, N-Benzyl-9-(4-bromo-2-fluorophenylamino)thiazolo[5,4-f]quinazoline-2-carboximidamide] | > 10 µM | > 10 µM | > 10 µM | 1.8 µM |  |  | 
COC(=N)c1nc2ccc3ncnc(Nc4ccc(OC)cc4)c3c2s1 [Compound 7i, Methyl 9-(4-methoxyphenylamino)thiazolo[5,4-f]quinazoline-2-carbimidate] |  | > 10 µM | > 10 µM | 0.2 µM |  |  | 
CCN(CC)CCNC(=N)c1nc2ccc3ncnc(Nc4ccc(F)c(Cl)c4)c3c2s1 [Compound 10e, 9-(3-Chloro-4-fluorophenylamino)-N-(2-(diethylamino)ethyl)thiazolo[5,4-f]quinazoline-2-carboxi-midamide] |  | > 10 µM |  | 7 µM |  | > 10 µM | > 10 µM
COC(=N)c1nc2ccc3ncnc(Nc4ccc(Br)cc4F)c3c2s1 [Compound 9i, Methyl 9-(4-bromo-2-fluorophenylamino)thiazolo[5,4-f]quinazoline-2-carbimidate] |  | > 10 µM | > 10 µM | 0.16 µM |  |  | 

More lines, main results first:

IC50 (DYRK1A) | IC50 (CK1δ/ε) | IC50 (CDK5/p25; read-out: CDK5 IC50) | IC50 (GSK-3α/β) | Structure (SMILES) | IC50 (CDK5/p25) | IC50 (DYRK1A; [1]) | IC50 (CDK5/p25; [2])
> 10 µM | > 10 µM | > 10 µM | > 10 µM | N=C(NCc1ccccc1)c1nc2ccc3ncnc(Nc4ccc(F)c(Cl)c4)c3c2s1 [Compound 10f, N-Benzyl-9-(3-chloro-4-fluorophenylamino)thiazolo[5,4-f]quinazoline-2-carboximidamide] |  |  | 
 | > 10 µM |  | 3.5 µM | N=C(NCCN1CCOCC1)c1nc2ccc3ncnc(Nc4ccc(F)c(Cl)c4)c3c2s1 [Compound 10a, 9-(3-Chloro-4-fluorophenylamino)-N-(2-morpholinoethyl)thiazolo[5,4-f]quinazoline-2-carboximid-amide] |  | > 10 µM | > 10 µM
 |  | > 10 µM |  | COC(=N)c1nc2ccc3ncnc(Nc4ccc(F)c(Cl)c4)c3c2s1 [Compound 10i, Methyl 9-(3-chloro-4-fluorophenylamino)thiazolo[5,4-f]quinazoline-2-carbimidate] |  |  | 
